Test results: the NIST ThermoML archive (doi:10.1021/je900262t)
± gives the expanded uncertainty stated by the source.

Columns and labels:
[1] = excess molar enthalpy (molar enthalpy of mixing); xn = mol fraction of the nth substance listed; settings: 298.15 K, 101 kPa, Liquid
[2] = Liquid; for vapor or sublimation pressure: Ebulliometric method (Recirculating still); for mass density: 303.15 K, 101.33 kPa, Pycnometric method

Molecule `CCC(C)=O` [butanone] + CN1CCCC1=O has an excess molar enthalpy ([1]; x1 = 0.0565) of -0.00626 ± 0.000932 kcal/mol, an excess molar enthalpy ([1]; x1 = 0.1162) of -0.0109 ± 0.00108 kcal/mol and an excess molar enthalpy ([1]; x1 = 0.1812) of -0.0161 ± 0.00124 kcal/mol. It also gave an excess molar enthalpy ([1]; x1 = 0.2461) of -0.0239 ± 0.00148 kcal/mol, an excess molar enthalpy ([1]; x1 = 0.3104) of -0.0306 ± 0.0017 kcal/mol and an excess molar enthalpy ([1]; x1 = 0.369) of -0.0355 ± 0.00184 kcal/mol. The excess molar enthalpy ([1]; x1 = 0.4334) was -0.0382 ± 0.00194 kcal/mol, the excess molar enthalpy ([1]; x1 = 0.4841) was -0.04 ± 0.00198 kcal/mol and the excess molar enthalpy ([1]; x1 = 0.5458) was -0.0377 ± 0.00191 kcal/mol. For the same molecule, the excess molar enthalpy ([1]; x1 = 0.6781) was -0.0277 ± 0.0016 kcal/mol, the excess molar enthalpy ([1]; x1 = 0.7324) was -0.0206 ± 0.00139 kcal/mol and the excess molar enthalpy ([1]; x1 = 0.7935) was -0.0148 ± 0.0012 kcal/mol. For the same molecule, the excess molar enthalpy ([1]; x1 = 0.8525) was -0.0117 ± 0.0011 kcal/mol, the excess molar enthalpy ([1]; x1 = 0.9112) was -0.00593 ± 0.000932 kcal/mol and the excess molar enthalpy ([1]; x1 = 0.9609) was -0.0048 ± 0.000908 kcal/mol.
In the case of `O=C1CCCCC1` [cyclohexanone], the “vapor or sublimation pressure” value ([2]; 426.25 K) is reported as 95.3 ± 1.1 kPa.
In the case of `CC(=O)CC(C)C` [4-methylpentan-2-one], the mass density [2] is reported as 796.33 ± 3.6 kg/m3 and the “vapor or sublimation pressure” value ([2]; 386.65 K) is reported as 95.3 ± 0.8 kPa.
`CC(=O)CC(C)C` [4-methylpentan-2-one] + CN1CCCC1=O showed an excess molar enthalpy ([1]; x1 = 0.0508) of 0.00545 ± 0.000908 kcal/mol, an excess molar enthalpy ([1]; x1 = 0.1052) of 0.0119 ± 0.0011 kcal/mol and an excess molar enthalpy ([1]; x1 = 0.1632) of 0.0183 ± 0.00131 kcal/mol. For the same molecule, the excess molar enthalpy ([1]; x1 = 0.2234) was 0.0242 ± 0.00148 kcal/mol, the excess molar enthalpy ([1]; x1 = 0.2858) was 0.0304 ± 0.00167 kcal/mol and the excess molar enthalpy ([1]; x1 = 0.3815) was 0.04 ± 0.00198 kcal/mol. It also gave an excess molar enthalpy ([1]; x1 = 0.4258) of 0.0429 ± 0.00208 kcal/mol, an excess molar enthalpy ([1]; x1 = 0.4787) of 0.0432 ± 0.00208 kcal/mol and an excess molar enthalpy ([1]; x1 = 0.5346) of 0.0415 ± 0.00203 kcal/mol. The excess molar enthalpy ([1]; x1 = 0.599) was 0.0401 ± 0.00198 kcal/mol, the excess molar enthalpy ([1]; x1 = 0.6712) was 0.0362 ± 0.00186 kcal/mol and the excess molar enthalpy ([1]; x1 = 0.7536) was 0.0253 ± 0.00153 kcal/mol. For the same molecule, the excess molar enthalpy ([1]; x1 = 0.8369) was 0.0156 ± 0.00122 kcal/mol and the excess molar enthalpy ([1]; x1 = 0.9192) was 0.00581 ± 0.000932 kcal/mol.
`O=C1CCCCC1` [cyclohexanone] + CN1CCCC1=O gave an excess molar enthalpy ([1]; x1 = 0.0609) of 0.0043 ± 0.000884 kcal/mol, an excess molar enthalpy ([1]; x1 = 0.1242) of 0.013 ± 0.00115 kcal/mol and an excess molar enthalpy ([1]; x1 = 0.1855) of 0.0201 ± 0.00136 kcal/mol. For the same molecule, the excess molar enthalpy ([1]; x1 = 0.2495) was 0.0261 ± 0.00155 kcal/mol, the excess molar enthalpy ([1]; x1 = 0.3151) was 0.0331 ± 0.00177 kcal/mol and the excess molar enthalpy ([1]; x1 = 0.3761) was 0.0391 ± 0.00196 kcal/mol. The excess molar enthalpy ([1]; x1 = 0.4301) was 0.0425 ± 0.00206 kcal/mol, the excess molar enthalpy ([1]; x1 = 0.4527) was 0.0461 ± 0.00217 kcal/mol and the excess molar enthalpy ([1]; x1 = 0.5028) was 0.0484 ± 0.00227 kcal/mol. For the same molecule, the excess molar enthalpy ([1]; x1 = 0.5608) was 0.0481 ± 0.00225 kcal/mol, the excess molar enthalpy ([1]; x1 = 0.6249) was 0.0477 ± 0.00225 kcal/mol and the excess molar enthalpy ([1]; x1 = 0.6866) was 0.04 ± 0.00198 kcal/mol. For the same molecule, the excess molar enthalpy ([1]; x1 = 0.7491) was 0.0317 ± 0.00172 kcal/mol, the excess molar enthalpy ([1]; x1 = 0.8134) was 0.0237 ± 0.00148 kcal/mol and the excess molar enthalpy ([1]; x1 = 0.8794) was 0.0158 ± 0.00124 kcal/mol. It also gave an excess molar enthalpy ([1]; x1 = 0.9445) of 0.00798 ± 0.001 kcal/mol.
For `CCC(C)=O` [butanone], the mass density [2] was 799.71 ± 3.7 kg/m3 and the “vapor or sublimation pressure” value ([2]; 350.85 K) was 95.3 ± 2 kPa.
With `CN1CCCC1=O` [N-methylpyrrolidone] the mass density [2] was 1023.4 ± 0.84 kg/m3 and the “vapor or sublimation pressure” value ([2]; 473.25 K) was 95.3 ± 1.9 kPa.
